We go through 1 compound from patent US6187559A, “Phospholipase D gene” (Novartis AG, priority 1998, dated 2001).

The subject of the assay is PLD (phospholipase D). Nature of the assay: Assay for PLD activity (release of 3H choline from radiolabeled PC). It counts as biochemical. Conditions: substrate [methyl-3H] choline dipalmitoyl PC; PLDT buffer (20 mM Tris-HCl pH 7.0, 1.0 mM EDTA, 0.05% Triton X-100), 37° C. The protocol: The PLD assay measured the release of ^3 H choline from radiolabeled PC (Steed et al. (1996) Biochemistry 35:5229-5237). Product was separated from substrate by partitioning into water from a chloroform:methanol extraction. ^3 H PC substrate was prepared by drying stock (in methanol) with argon and re-dissolving into minimal volumes of methanol (2-10 μl). After dilution with a buffer of 20 mM Tris-HCl, pH 7.0, 1.0 mM EDTA and 0.05% Triton X-100 (PLDT buffer) to a 5× concentration, the substrate was sonicated for 30 sec and used immediately. The assay was performed with 1.0 μM [methyl-^3 H] choline L-a-PC dipalmitoyl phosphatidylcholine (0.1 μCi/assay) and enzyme with PLDT buffer added to a final volume of 50 μl using polypropylene tubes. Since the estimated Km is greater than 1 μM, PC is limiting in this assay. Unfortunately, the solubility constraints of the lipid substrate preclude the use of higher PC concentrations. […] The radioactivity in the aqueous phase (200 μl) was counted in either a Beckman LS 3801 (Beckman Instruments Columbia Md.) or Wallac 1450 Microbeta Plus (Wallac Inc., Gaithersburg Md.) liquid scintillation counter after the addition of scintillant. […] The material was assayed using transphosphatidylation to butanol and ethanol to verify that PLD activity is being measured. […]

`CCCCCCCCCCCCCCCC(=O)OC[C@H](COP(=O)([O-])OCC[N+](C)(C)C)OC(=O)CCCCCCCCCCCCCCC` [PC, dipalmitoyl phosphatidylcholine]: the “estimated Km” value was “greater than 1 μM”.
